Results as given in article PMC4817154 (Scientific Reports, 2016).
Where “and” joins values, the source holds several entries; their conditions need not be identical. Equal values may be shown once.

What was measured:
[1] = tested on: NCCc1c[nH]c2ccc(O)cc12; assay: cells, lysate or membranes; settings: [3H]5-HT transport, T-REx-293 cells, average ± SEM, pH 7.4
[2] = target: hsSERT-Y95F (Homo sapiens, UniProt P31645, Y95F); settings: cited from earlier work
[3] = target: T1, dmSERT-WT (Drosophila melanogaster, UniProt P51905); assay: Paroxetine inhibition of [3H]5-HT transport; assay type: cell-based
T1 construct: expressed in transfected cells; host or cells: T-REx-293
T1 sequence (P51905 1-622): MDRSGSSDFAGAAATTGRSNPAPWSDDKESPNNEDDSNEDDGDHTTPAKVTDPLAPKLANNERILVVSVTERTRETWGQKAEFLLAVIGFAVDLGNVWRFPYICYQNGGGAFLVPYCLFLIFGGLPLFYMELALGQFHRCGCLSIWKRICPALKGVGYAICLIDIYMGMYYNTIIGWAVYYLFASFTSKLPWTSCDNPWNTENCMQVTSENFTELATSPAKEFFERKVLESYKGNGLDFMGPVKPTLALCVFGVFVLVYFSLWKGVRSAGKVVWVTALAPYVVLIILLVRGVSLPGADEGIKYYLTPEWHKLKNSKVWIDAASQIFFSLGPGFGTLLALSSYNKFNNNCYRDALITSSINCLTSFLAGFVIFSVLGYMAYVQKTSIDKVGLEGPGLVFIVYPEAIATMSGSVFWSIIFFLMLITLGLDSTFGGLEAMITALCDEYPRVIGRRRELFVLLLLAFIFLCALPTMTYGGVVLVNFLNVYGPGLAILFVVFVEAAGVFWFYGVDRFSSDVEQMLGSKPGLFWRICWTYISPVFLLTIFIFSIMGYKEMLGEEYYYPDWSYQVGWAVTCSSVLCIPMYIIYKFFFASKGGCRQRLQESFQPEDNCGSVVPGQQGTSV

[4] = target: T2, dmSERT-F90Y (Drosophila melanogaster, UniProt P51905, F90Y); assay: cell-based
T2 construct: expressed in transfected cells; host or cells: T-REx-293

[5] = target: T3, dmSERT-D164A (Drosophila melanogaster, UniProt P51905, D164A); assay: cell-based
T3 construct: expressed in transfected cells; host or cells: T-REx-293

[6] = target: T4, dmSERT-M167I (Drosophila melanogaster, UniProt P51905, M167I); assay: cell-based
T4 construct: expressed in transfected cells; host or cells: T-REx-293

[7] = target: T5, dmSERT-G168A (Drosophila melanogaster, UniProt P51905, G168A); assay: cell-based
T5 construct: expressed in transfected cells; host or cells: T-REx-293

[8] = target: T6, dmSERT-N484E (Drosophila melanogaster, UniProt P51905, N484E); assay: cell-based
T6 construct: expressed in transfected cells; host or cells: T-REx-293

[9] = target: T7, dmSERT-P488T (Drosophila melanogaster, UniProt P51905, P488T); assay: cell-based
T7 construct: expressed in transfected cells; host or cells: T-REx-293

[10] = target: T8, dmSERT-I492V (Drosophila melanogaster, UniProt P51905, I492V); assay: cell-based
T8 construct: expressed in transfected cells; host or cells: T-REx-293

[11] = target: LeuBAT-Δ13; settings: LeuBAT-Δ13 construct; cited from earlier work
[12] = target: dmSERT; parameters: method as in PMID 8197200, PMID 9677366; settings: read-out: published paroxetine Ki for inhibition of [3H]5-HT uptake; cited from earlier work
[13] = target: ggSERT; parameters: method as in PMID 15271993; settings: read-out: published paroxetine Ki for inhibition of [3H]5-HT uptake; cited from earlier work
[14] = target: T2, dmSERT-F90Y; assay type: cell-based
[15] = target: T3, dmSERT-D164A; assay type: cell-based
[16] = target: T4, dmSERT-M167I; assay type: cell-based
[17] = target: T5, dmSERT-G168A; assay type: cell-based
[18] = target: T6, dmSERT-N484E; assay type: cell-based
[19] = target: T7, dmSERT-P488T; assay type: cell-based
[20] = target: T8, dmSERT-I492V; assay type: cell-based
[21] = target: ggSERT-WT (Gallus gallus, UniProt Q6PWI2); assay: Steady-state kinetics of [3H]5-HT transport; assay type: cell-based, chicken (Gallus gallus)
Description: (§1) Control cells were transfected with empty vector.

[22] = substrate: NCCc1c[nH]c2ccc(O)cc12; assay: cells, lysate or membranes; assay type: cell-based, chicken (Gallus gallus); settings: [3H]5-HT transport, T-REx-293 cells, average ± SEM, pH 7.4
Description: as §1

dmSERT-P488T (Drosophila melanogaster; P488T)
Km ([1]; other: dmSERT-P488T): 2,737 ± 277 nM
Vmax ([1]; other: dmSERT-P488T): 9.8 ± 0.2 pmol/min/mg total cell protein

dmSERT-F90Y (Drosophila melanogaster; F90Y)
Km ([1]; other: dmSERT-F90Y): 1,784 ± 121 nM
Vmax ([1]; other: dmSERT-F90Y): 70.9 ± 2.7 pmol/min/mg total cell protein

OC1(c2ccc(Cl)cc2)c2ccccc2C2=NCCN21 (stereo not drawn) [mazindol]
change in potency [2]: increase

Fc1ccc([C@@H]2CCNC[C@H]2COc2ccc3c(c2)OCO3)cc1 [Paroxetine, (3S,4R)-3-[(2H-1,3-benzodioxol-5-yloxy)methyl]-4-(4-fluorophenyl)piperidine]
IC50 [3]: 6.1 ± 1.35 nM
Ki ([3]; Ki, dmSERT-WT, from IC50 and Km via Cheng-Prusoff): 6.04 ± 1.33 nM
IC50 [4]: 5.31 ± 0.94 nM
Ki [4]: 5.26 ± 0.93 nM
IC50 [5]: 0.86 ± 0.07 nM
Ki ([5]; Ki, dmSERT-D164A, from IC50 and Km via Cheng-Prusoff): 0.9 nM and 0.86 nM
IC50 [6]: 2.71 ± 0.29 nM
Ki [6]: 2.68 ± 0.29 nM
IC50 [7]: 2.8 ± 0.66 nM
Ki [7]: 2.78 ± 0.66 nM
IC50 [8]: 1.9 ± 0.22 nM
Ki [8]: 1.83 ± 0.21 nM
IC50 [9]: 20.5 ± 1.86 nM
Ki [9]: 20.3 ± 1.85 nM
IC50 [10]: 16.3 ± 1.2 nM
Ki [10]: 16.2 ± 1.2 nM
Kd [11]: ~430 nM
Ki [12]: 3.4 nM
Ki [13]: 397 nM

dmSERT-M167I (Drosophila melanogaster; M167I)
Km ([1]; other: dmSERT-M167I): 1,487 ± 132 nM
Vmax ([1]; other: dmSERT-M167I): 51.6 ± 14.3 pmol/min/mg total cell protein

dmSERT-N484E (Drosophila melanogaster; N484E)
Km ([1]; other: dmSERT-N484E): 522 ± 67 nM
Vmax ([1]; other: dmSERT-N484E): 5.2 ± 1.2 pmol/min/mg total cell protein

dmSERT-I492V (Drosophila melanogaster; I492V)
Km ([1]; other: dmSERT-I492V): 3,281 ± 357 nM
Vmax ([1]; other: dmSERT-I492V): 58.0 ± 5.7 pmol/min/mg total cell protein

dmSERT-G168A (Drosophila melanogaster; G168A)
Km ([1]; other: dmSERT-G168A): 3,342 ± 272 nM
Vmax ([1]; other: dmSERT-G168A): 213.4 ± 39.9 pmol/min/mg total cell protein

NCCc1c[nH]c2ccc(O)cc12 [5-HT, 5-hydroxytryptamine]
% wt Vmax [14]: 109.7 ± 4.2%
% wt Vmax [15]: 136.0 ± 10.6%
% wt Vmax [16]: 79.9 ± 22.1%
% wt Vmax [17]: 330.3 ± 61.7%
% wt Vmax [18]: 8.0 ± 1.8%
% wt Vmax [19]: 15.1 ± 0.3%
% wt Vmax [20]: 89.8 ± 8.8%
% wt Vmax [21]: 100 ± 9.6%

dmSERT-D164A (Drosophila melanogaster; D164A)
Km ([1]; other: dmSERT-D164A): 10,258 ± 756 nM
Vmax ([1]; other: dmSERT-D164A): 87.9 ± 6.8 pmol/min/mg total cell protein

B1: ggSERT-WT (Gallus gallus) (protein)
chain: MENKATSNETQPLTSKKGISDCNEGEDCKENGLLIRNPKSALRLVDDGNKVHPGQGDKEEAAQISNGYSGVQSSGPCSGMGEAEDAQCTAPAATTTTTTTTSTTCGAEGQQQLMELGDRETWSKKIDFLLSVIGYAVDLGNVWRFPYICYQNGGGAFLIPYTIMAIFGGIPLFYMELALGQYHRNGCISIWRKICPIFKGIGFAICIIDLYVASYYNTIMAWVFYYLVSSFTTELPWTSCNNAWNTGNCTTYFSKDNISWALHSISPAEEFYTRQVLQVHRSNGLDDLGGISWQLTLCLLLIFIIVYFSIWKGVKTSGKVVWVTATFPYVILFILLVRGATLPGAWRGVLYYLKPEWQKLLATEVWVDAAAQIFFSLGPGFGVLLAYASYNKFHNNCYQDALVTSTVNCLTSFVSGFVIFTVLGYMAEMRNEDVSEVAKDMGPSLLFITYAEAIANMPASTFFAIIFFLMLLTLGLDSTFAGLEGVITGVLDEFPHVWSKRREFFVLGLIIICFLGSLATLTFGGAYVVKLFEEYATGPAVLTVVFLEAVAVAWFYGITQFCNDVKEMLGFAPGWYWRVCWVAISPIFLLFVTCSFLSNPPELRLFDYNYPYWTTVVGYCIGTSSIICIPIYMAYRLIITPGTLKERILKSITPETATEIPFGDIRMNAV
Vmax ([22]; other: ggSERT-WT): 18.4 ± 1.8 pmol/min/mg total cell protein

B2: ggSERT-D209A (Gallus gallus; D209A) (protein)
chain: MENKATSNETQPLTSKKGISDCNEGEDCKENGLLIRNPKSALRLVDDGNKVHPGQGDKEEAAQISNGYSGVQSSGPCSGMGEAEDAQCTAPAATTTTTTTTSTTCGAEGQQQLMELGDRETWSKKIDFLLSVIGYAVDLGNVWRFPYICYQNGGGAFLIPYTIMAIFGGIPLFYMELALGQYHRNGCISIWRKICPIFKGIGFAICIIALYVASYYNTIMAWVFYYLVSSFTTELPWTSCNNAWNTGNCTTYFSKDNISWALHSISPAEEFYTRQVLQVHRSNGLDDLGGISWQLTLCLLLIFIIVYFSIWKGVKTSGKVVWVTATFPYVILFILLVRGATLPGAWRGVLYYLKPEWQKLLATEVWVDAAAQIFFSLGPGFGVLLAYASYNKFHNNCYQDALVTSTVNCLTSFVSGFVIFTVLGYMAEMRNEDVSEVAKDMGPSLLFITYAEAIANMPASTFFAIIFFLMLLTLGLDSTFAGLEGVITGVLDEFPHVWSKRREFFVLGLIIICFLGSLATLTFGGAYVVKLFEEYATGPAVLTVVFLEAVAVAWFYGITQFCNDVKEMLGFAPGWYWRVCWVAISPIFLLFVTCSFLSNPPELRLFDYNYPYWTTVVGYCIGTSSIICIPIYMAYRLIITPGTLKERILKSITPETATEIPFGDIRMNAV
Km ([22]; other: ggSERT-D209A): 0.971 ± 0.071 µM
Vmax ([22]; other: ggSERT-D209A): 73.8 ± 21.5 pmol/min/mg total cell protein
